# According to patent US6750228B1, “Aromatic sulfone hydroxamic acid metalloprotease inhibitor” (priority 1997, dated 2004):
# pIC50: −log10 of the molar value. Structures can show the parent of a compound that is named as a salt. Where two headings read alike, the source gives them in different places.
# How the values were obtained:
# Assay in all cases: biochemical
# MMP-13 = biological target: T1, MMP-13 (Homo sapiens, UniProt P45452); details: for pIC50: read-out: MMP-13 IC50; for IC50: MMP-13 IC50 (nM)
# T1 construct: made in house; host or cells: baculovirus / insect cells
# Outline: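 Assay buffer 100 mM Tris-HCl, 100 mM NaCl, 10 mM CaCl2, pH 7.5. Activated MMP + inhibitor, 5 min RT; then methoxycoumarin peptide substrate, 4 μM final. Readout fluorescence; IC50 calculated.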
# MMP-1 = biological target: T2, MMP-1 (Homo sapiens, UniProt P03956); details: read-out: MMP-1 IC50
# T2 construct: made in house; host or cells: transfected HT-1080 cells (provided by Dr. Harold Welgus, Washington University)
# T2 sequence (P03956 100-469): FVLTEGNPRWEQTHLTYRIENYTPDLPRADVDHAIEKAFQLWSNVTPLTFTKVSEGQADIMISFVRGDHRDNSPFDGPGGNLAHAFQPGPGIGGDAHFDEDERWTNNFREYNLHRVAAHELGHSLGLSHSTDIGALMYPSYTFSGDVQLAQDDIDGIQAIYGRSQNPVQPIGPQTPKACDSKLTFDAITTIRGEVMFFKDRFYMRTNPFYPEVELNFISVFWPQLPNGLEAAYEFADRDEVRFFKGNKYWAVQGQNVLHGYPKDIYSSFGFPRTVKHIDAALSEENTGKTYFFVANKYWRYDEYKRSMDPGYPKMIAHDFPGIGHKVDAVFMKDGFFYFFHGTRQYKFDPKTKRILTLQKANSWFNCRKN
# Outline: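 APMA- or trypsin-activated enzymes were preincubated with inhibitor for 5 min at room temperature, then the fluorogenic substrate MCA-Pro-Leu-Gly-Leu-Dpa-Ala-Arg-NH2 was added to a final 4 μM.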
# MMP-2 = biological target: T3, MMP-2 (Homo sapiens, UniProt P08253); details: for pIC50: read-out: MMP-2 IC50; for IC50: MMP-2 IC50 (nM)
# T3 construct: made in house; provided by Dr. Gregory Goldberg, Washington University
# T3 sequence (P08253 110-660): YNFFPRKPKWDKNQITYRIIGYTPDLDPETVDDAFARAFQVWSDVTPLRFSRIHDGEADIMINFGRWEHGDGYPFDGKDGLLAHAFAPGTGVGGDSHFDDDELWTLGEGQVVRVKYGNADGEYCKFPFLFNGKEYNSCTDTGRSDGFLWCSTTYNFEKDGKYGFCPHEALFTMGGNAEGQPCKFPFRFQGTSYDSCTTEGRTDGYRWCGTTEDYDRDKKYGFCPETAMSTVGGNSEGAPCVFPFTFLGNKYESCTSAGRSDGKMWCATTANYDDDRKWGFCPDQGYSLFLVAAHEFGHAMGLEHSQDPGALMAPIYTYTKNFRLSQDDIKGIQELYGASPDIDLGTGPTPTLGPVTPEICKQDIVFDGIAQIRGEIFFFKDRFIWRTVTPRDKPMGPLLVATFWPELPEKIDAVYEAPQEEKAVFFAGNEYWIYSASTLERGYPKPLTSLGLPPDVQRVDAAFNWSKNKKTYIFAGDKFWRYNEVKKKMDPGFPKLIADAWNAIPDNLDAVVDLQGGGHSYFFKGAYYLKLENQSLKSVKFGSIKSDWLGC
# Outline: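 APMA- or trypsin-activated human MMPs (MMP-1 from transfected HT-1080 cells, MMP-2 from transfected cells) preincubated with inhibitor in 1% DMSO at room temperature, then 4 μM MCA-Pro-Leu-Gly-Leu-Dpa-Ala-Arg-NH2 added in Tris/NaCl/CaCl2 buffer pH 7.5. IC50 from fluorescence reduction versus inhibitor concentration.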
# [1] = recombinant human MMP-13, MCA peptide substrate 4 μM, pH 7.5, room temperature
# [2] = recombinant human MMP-1, MCA peptide substrate 4 μM, pH 7.5, room temperature
# [3] = recombinant human MMP-2, MCA peptide substrate 4 μM, pH 7.5, room temperature
Structure (SMILES),pIC50 (MMP-13; [1]),pIC50 (MMP-1; [2]),pIC50 (MMP-2; [3]),IC50 (MMP-13; [1]) [nM],pIC50 (MMP-1),IC50 (MMP-2) [nM],pIC50 (MMP-13),pIC50 (MMP-2)
O=C(c1cc(F)cc(F)c1)C1CCN(c2ccc(S(=O)(=O)C3(C(=O)NO)CCOCC3)cc2)CC1 [Example 724],7.54,< 5.00,6.52,,,,,
O=C(NO)C1(S(=O)(=O)c2ccc(N3CCC(c4ccc(Cl)cc4)CC3)cc2)CCOCC1 [Example 541],,< 5.00,8.70,0.7,,,,
O=C(c1ccc2c(c1)OCCO2)C1CCN(c2ccc(S(=O)(=O)C3(C(=O)NO)CCOCC3)cc2)CC1 [Example 797],8.40,,6.76,,< 5.00,,,
O=C(NO)C1(S(=O)(=O)c2ccc(N3CCCC(COCc4ccccc4)C3)cc2)CCOCC1 (stereo not drawn) [Example 504],8.20,< 5.00,6.66,,,,,
O=C(NO)C1(S(=O)(=O)c2ccc(N3CCN(S(=O)(=O)c4cccc(C(F)(F)F)c4)CC3)cc2)CCOCC1 [Example 676],8.11,< 5.00,7.05,,,,,
Cc1cc(C(=O)C2CCN(c3ccc(S(=O)(=O)C4(C(=O)NO)CCOCC4)cc3)CC2)ccc1Cl [Example 858],8.43,< 5.00,6.22,,,,,
CC1CC(C)CN(C(=O)C2CCN(c3ccc(S(=O)(=O)C4(C(=O)NO)CCN(C(=O)CN5CCCC5=O)CC4)cc3)CC2)C1 (stereo not drawn) [Example 314],7.19,< 5.00,< 5.00,,,,,
O=C(C1CCN(c2ccc(S(=O)(=O)C3(C(=O)NO)CCOCC3)cc2)CC1)N1CCN(c2cnccn2)CC1 [Example 40],,,,26.8,< 5.00,900,,
O=C(NO)C1(S(=O)(=O)c2ccc(N3CCC(c4ccccc4-c4ccc(F)cc4)CC3)cc2)CCOCC1 [Example 543],,< 5.00,5.27,33.7,,,,
O=C(NO)C1(S(=O)(=O)c2ccc(N3CCC(CCOCc4cccc(C(F)(F)F)c4)CC3)cc2)CCOCC1 [Example 503],8.00,< 5.00,7.30,,,,,
O=C(NO)C1(S(=O)(=O)c2ccc(Oc3ccc(OC(F)(F)F)cc3)cc2)CCN(c2ccncc2)CC1 [Example 391],10.00,5.27,> 10.00,,,,,
CCN(CC)Cc1ccc(COC2CCN(c3ccc(S(=O)(=O)C4(C(=O)NO)CCOCC4)cc3)CC2)cc1 [Example 523],8.62,< 5.00,6.72,,,,,
"COCCN1CCC(C(=O)NO)(S(=O)(=O)c2ccc(N3CCC(C(=O)Nc4ccccc4)CC3)cc2)CC1 [Example 236, N-Hydroxy-1-(2-methoxyethyl)-4-[[4-[4-[(phenylamino)carbonyl]-1-piperidinyl]phenyl]-sulfonyl]-4-piperidinecarboxamide Monohydrochloride)]",,< 5.00,,9,,400,,
O=C(C1CCN(c2ccc(S(=O)(=O)C3(C(=O)NO)CCOCC3)cc2)CC1)N1CCN(c2ccc(F)cc2F)CC1 [Example 36],,,,,< 5.00,,7.80,5.68
O=C(NO)C1(S(=O)(=O)c2ccc(N3CCCC3)cc2)CCOCC1 [Example 81],7.22,< 5.00,6.80,,,,,
CC(=O)c1ccc(OC2CCN(c3ccc(S(=O)(=O)C4(C(=O)NO)CCOCC4)cc3)CC2)cc1 [Example 470],6.85,< 5.00,5.70,,,,,
O=C(c1ccc(F)cc1)C1CCN(c2ccc(S(=O)(=O)C3(C(=O)NO)CCSCC3)cc2)CC1 [Example 152],,,,,< 5.00,,8.70,7.23
COc1ccc(Oc2ccc(S(=O)(=O)C3(C(=O)NO)CCS(=O)(=O)CC3)cc2)cc1 [Example 156],,,,,< 5.00,,8.66,9.35
CCOCC1CCCN(c2ccc(S(=O)(=O)C3(C(=O)NO)CCOCC3)cc2)C1 (stereo not drawn) [Example 563],7.15,< 5.00,6.63,,,,,
O=C(NO)C1(S(=O)(=O)c2ccc(Oc3ccc(OC(F)(F)F)cc3)cc2)CCN(c2ccccn2)CC1 [Example 352],8.85,< 5.00,9.52,,,,,
